Assay results from US10806798B2, “Compound with effects of thrombolysis, free radical scavenging and thrombus-targeting” (Shanghai Lumosa Therapeutics Co., Ltd., priority 2012, dated 2020).

What was measured:
Format in all cases: in vivo, SD rats
rats with stroke [1] = assay: Immediate treatment after stroke onset with different dosages of Ie (Zealonga scores)
Description: A 10% chloral hydrate solution (400 mg/kg) was injected intraperitoneally into male SD rats (250 to 300 g) for anesthesia. An incision of about 2 cm in length was longitudinally made slightly on the right to the center of the neck, and the right carotid common artery, carotid external artery and carotid internal artery were dissected along the margin of the inner side of sternocleidomastoid muscles. The open incision in the carotid internal artery and the proximal end of the common carotid artery were occluded respectively with noninvasive arterial clips. A small incision was made on the carotid external artery, and the distal end of the carotid external artery was ligated. The arterial clip at the proximal end of the carotid external artery was released, and 10 μl blood was drawn before the proximal end of the common carotid artery was again occluded with a noninvasive arterial clip. The 10 μl blood drawn was placed in a 1 mL EP vial and kept at RT for 30 min until coagulation of blood, and then transferred into a −20° C. refrigerator for 1 h to allow solid coagulation. After 1 h, the blood clots were taken out, added into 1 mL saline, and then broken into relatively uniform microthrombus by using a steel spatula. The microthrombus suspension was then transferred into a 1 mL injector until use. At the same time when the clip on the carotid internal artery of the rat was released, the 1 mL thrombus suspension in the injector was slowly injected from the carotid external artery of the rat to its proximal end, and then was injected into the brain of the rat through the carotid internal artery. Subsequently, the proximal end of the carotid external artery was ligated, the arterial clips on the carotid internal artery and the carotid common artery were released, and blood flow was restored. Injection of urokinase in normal saline (positive control group, at a dosage of 20000 IU/kg), tPA in normal saline (positive control group, at a dosage of 3 mg/kg), normal saline (blank control group, at a dosage of 3 mL/kg), or compound Ie in normal saline (at a dosage of 1 μmol/kg, 0.1 μmol/kg or 0.01 μmol/kg) was carried out. 24 h after the rats were awake, the degree of damage in neural function was evaluated by the Zealonga method. A score of 0 indicated no sign of loss in neural function, 1 indicated the front limbs on the undamaged side could not stretch out, 2 indicated walking toward the undamaged side, 3 indicated tail-chasing walking in circles toward the undamaged side, 4 indicated involuntary walking with disturbance of consciousness, and 5 indicated death. As shown in the results, in rats receiving immediate treatment after the onset of stroke with […] compound Ie, the percentage of rats with a neural function score of 0 was 60%, 30%, and 0%, respectively; and the percentage of rats with a neural function score of 1 was 20%, 30%, and 10%, respectively.

rats with stroke [2] = assay: Successive treatments starting 4 h after the onset of stroke (Zealonga scores)
Description: The efficacy was represented by neural function scores, and a lower score indicates higher efficacy. A 10% chloral hydrate solution was injected intraperitoneally into male SD rats at a dosage of 400 mg/kg body weight for anesthesia. A longitudinal incision was made at the center of the neck, and the right carotid common artery trunk was dissected (about 3 cm in length). Carotid external artery branches were each dissected and ligated at the hyoid level, and the carotid internal artery was dissected at the swollen part of the neck. The open incision in the carotid internal artery and the proximal end of the common carotid artery were occluded respectively with noninvasive arterial clips, and the distal end of the carotid external artery was ligated. A catheter containing 0.5 mL thrombus suspension in normal saline was inserted in the carotid external artery trunk. At the same time when the clip on the carotid internal artery was released, the 0.5 mL thrombus suspension in normal saline in the catheter slowly flew from the carotid external artery to its proximal end, and then was injected into the arteries in brain through the carotid internal artery. Subsequently, the proximal end of the carotid artery was ligated, the arterial clips on the carotid internal artery and the common carotid artery were released, and blood flow was restored. After the wound was stitched up, 20,000 IU penicillin was intramuscularly injected for prevention from infection. After 4 h, compound Ie in normal saline (at a dosage of 1 μmol/kg, n=1), urokinase in normal saline (at a dosage of 20000 IU/kg, n=6) or tPA in normal saline (at a dosage of 3 mg/kg, n=6) was infused through the tail vein. Infusion of compound Ie in normal saline through rat tail vein was carried out once per day for 6 consecutive days, observed for 7 days. The rats were compared to themselves each day, and evaluated for degree of damage in neural function by the Zealonga method. Alternatively, infusion of urokinase in normal saline through rat tail vein was carried out once per day for two consecutive days, the rats were compared to themselves each day, and evaluated for the degree of damage in neural function by the Zealonga method. Alternatively, infusion of tPA in normal saline through rat tail vein was carried out once per day for two consecutive days, the rats were compared to themselves each day, and evaluated for the degree of damage in neural function by the Zealonga method. A score of 0 indicated no sign of loss in neural function, 1 indicated the front limbs on the undamaged side could not stretch out, 2 indicated walking toward the undamaged side, 3 indicated tail-chasing walking in circles toward the undamaged side, 4 indicated involuntary walking with disturbance of consciousness, and 5 indicated death.

rats with stroke [3] = assay: Successive treatments with 1 μmol/kg Ie starting 6 h after the onset of stroke (Zealonga scores)
Description: The efficacy was represented by neural function scores, and a lower score indicates higher efficacy. A 10% chloral hydrate solution was injected intraperitoneally into male SD rats at a dosage of 400 mg/kg body weight for anesthesia. A longitudinal open incision was made at the center of the neck, and the right common carotid artery trunk was dissected (about 3 cm in length). Carotid external artery branches were each dissected and ligated at the hyoid level, and the carotid internal artery was dissected at the swollen part of the neck. The open incision in the carotid internal artery and the proximal end of the common carotid artery were occluded respectively with noninvasive arterial clips, and the distal end of the carotid external artery was ligated. A catheter containing 0.5 mL thrombus suspension in normal saline was inserted in the carotid external artery trunk. At the same time when the clip on the carotid internal artery was released, the 0.5 mL thrombus suspension in normal saline in the catheter slowly flew from the carotid external artery to its proximal end, and then was injected into the arteries in brain through the carotid internal artery. Subsequently, the proximal end of the carotid artery was ligated, the arterial clips on the carotid internal artery and the common carotid artery were released, and blood flow was restored. After the wound was stitched up, 20,000 IU penicillin was intramuscularly injected for prevention from infection. After 6 h, compound Ie in normal saline (at a dosage of 1 μmol/kg, n=11), urokinase in normal saline (at a dosage of 20000 IU/kg, n=6) or tPA in normal saline (at a dosage of 3 mg/kg, n=6) was infused through the tail vein. Infusion of compound Ie in normal saline through rat tail vein was carried out once per day for 6 consecutive days, observed for 7 days. The rats were compared to themselves each day, and evaluated for the degree of damage in neural function by the Zealonga method. Alternatively, infusion of urokinase in normal saline through rat tail vein was carried out once per day for two consecutive days, the rats were compared to themselves each day, and evaluated for the degree of damage in neural function by the Zealonga method. Alternatively, infusion of tPA in normal saline through rat tail vein was carried out once per day for two consecutive days, the rats were compared to themselves each day, and evaluated for the degree of damage in neural function by the Zealonga method. A score of 0 indicated no sign of loss in neural function, 1 indicated the front limbs on the undamaged side could not stretch out, 2 indicated walking toward the undamaged side, 3 indicated tail-chasing walking in circles toward the undamaged side, 4 indicated involuntary walking with disturbance of consciousness, and 5 indicated death.

[4] = Day 1, tPA 3 mg/kg once per day from 4 h after stroke onset, n=6
[5] = Day 2, tPA 3 mg/kg once per day from 4 h after stroke onset, n=6
[6] = Day 1, tPA 3 mg/kg once per day from 6 h after stroke onset, n=6
[7] = Day 2, tPA 3 mg/kg once per day from 6 h after stroke onset, n=6

tPA: tissue-type plasminogen activator, positive control
percentage of rats with a neural function score of 0 (rats with stroke [1]; 3 mg/kg tPA): 40% | percentage of rats with a neural function score of 1 (rats with stroke [1]; 3 mg/kg tPA): 10% | number of rats scored Score 0 (rats with stroke [1]; tPA 3 mg/kg, n = 10): 4 | number of rats scored Score 1 (rats with stroke [1]; tPA 3 mg/kg, n = 10): 1 | number of rats scored Score 2 (rats with stroke [1]; tPA 3 mg/kg, n = 10): 1 | number of rats scored Score 3 (rats with stroke [1]; tPA 3 mg/kg, n = 10): 3 | number of rats scored Score 4 (rats with stroke [1]; tPA 3 mg/kg, n = 10): 1 | number of rats scored Score 5 (rats with stroke [1]; tPA 3 mg/kg, n = 10): 0 | number of rats scored Score 1 (rats with stroke [2]; [4]): 2 rats | number of rats scored Score 2 (rats with stroke [2]; [4]): 3 rats | number of rats scored Score 3 (rats with stroke [2]; [4]): 1 rat rats | number of rats scored Score 0 (rats with stroke [2]; [5]): 2 rats | number of rats scored Score 1 (rats with stroke [2]; [5]): 2 rats | number of rats scored Score 2 (rats with stroke [2]; [5]): 1 rat^ rats | rats recovered to have only the sign of slight loss in neural function (rats with stroke [2]; after two doses, tPA 3 mg/kg each day from 4 h after stroke onset, 6 rats): 2 rats | rats died (rats with stroke [2]; out of 6 rats, within 24 h, tPA 3 mg/kg each day from 4 h after stroke onset): 1 | autopsy on the dead rat (rats with stroke [2]; tPA 3 mg/kg each day from 4 h after stroke onset): hemorrhage in internal organs, particularly severe hemorrhage in lungs | number of rats scored Score 0 (rats with stroke [3]; [6]): 1 rat^ rats | number of rats scored Score 1 (rats with stroke [3]; [6]): 1 rat rats | number of rats scored Score 2 (rats with stroke [3]; [6]): 1 rat rats | number of rats scored Score 3 (rats with stroke [3]; [6]): 1 rat rats | number of rats scored Score 4 (rats with stroke [3]; [6]): 2 rats | number of rats scored Score 0 (rats with stroke [3]; [7]): 2 rats | number of rats scored Score 2 (rats with stroke [3]; [7]): 1 rat rats | number of rats scored Score 3 (rats with stroke [3]; [7]): 1 rat rats | rats recovered to have only the sign of slight loss in neural function (rats with stroke [3]; after two doses, tPA 3 mg/kg each day from 6 h after stroke onset, 6 rats): 2 rats | rats died (rats with stroke [3]; out of 6 rats, within 24 h, tPA 3 mg/kg each day from 6 h after stroke onset): 2 | autopsy on the dead rats (rats with stroke [3]; tPA 3 mg/kg each day from 6 h after stroke onset): hemorrhage in internal organs, particularly severe hemorrhage in lungs
